Measured values as given in US7829665B2 (priority 2005, dated 2010).

Columns and labels:
[1] = from C=CCCCCC[C@H](NC(=O)OC(C)(C)C)C(=O)N1CCC[C@H]1C(=O)N[C@]1(C(=O)OCC)C[C@H]1C=C; rcm bond; Hoveyda 1st generation catalyst; 1,2-dichloroethane; 10.0 mM; 50.0 °C; 16.0 h
[2] = system: HCV sub-genomic replicon in GS4.3 cells (HuH-7 hepatoma cells); assay: Quantitation by ELISA of Neomycin phosphotransferase II (NPTII) in the HCV sub-genomic replicon, GS4.3; type: cell-based, hepatitis C virus; details: Hepatitis C virus, Huh-7; GS4.3 cells, 72 h incubation, NPTII ELISA; read-out: Replicon EC50
In short: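 Replicon-bearing HuH-7 (GS4.3) cells were exposed to compounds for 72 h in G418-free medium, top final concentration 10 μM, 1% DMSO. Lysates went to an NPTII ELISA read at 450 nm. Signal was normalised to DMSO-treated wells and EC50 was derived by four-parameter curve fitting.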

[3] = molecular target: T1, full-length NS3/NS4A-2 (HCV NS3 protease) (Hepatitis C virus genotype 1a, UniProt P27958); assay: NS3-NS4 protease assay / NS3 inhibition assay (RETS1 substrate, fluorescence kinetic read); type: biochemical; details: recombinant E. coli or Baculovirus full-length NS3 with NS4A-2; read-out: NS3-NS4 IC50
T1 construct: Recombinant E. coli or Baculovirus full-length NS3 was diluted to 3.33 μM with assay buffer; made in house; host or cells: E. coli or baculovirus (BV) expression system
In short: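 Ki values come from IC50 fits corrected via Ki=IC50/(1+[S]/Km), with Km 2.03 μM for E. coli and 1.74 μM for baculovirus full-length NS3. Enzyme (2 or 3 nM NS3, respectively, complexed with NS4A-2) sat with compound, top concentration 50 microM, for 10 min at room temperature. Cleavage of RETS1 (8 μM working solution) was then followed by fluorescence (335/495 nm) over 30 min.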

T1 sequence (P27958 1027-1657): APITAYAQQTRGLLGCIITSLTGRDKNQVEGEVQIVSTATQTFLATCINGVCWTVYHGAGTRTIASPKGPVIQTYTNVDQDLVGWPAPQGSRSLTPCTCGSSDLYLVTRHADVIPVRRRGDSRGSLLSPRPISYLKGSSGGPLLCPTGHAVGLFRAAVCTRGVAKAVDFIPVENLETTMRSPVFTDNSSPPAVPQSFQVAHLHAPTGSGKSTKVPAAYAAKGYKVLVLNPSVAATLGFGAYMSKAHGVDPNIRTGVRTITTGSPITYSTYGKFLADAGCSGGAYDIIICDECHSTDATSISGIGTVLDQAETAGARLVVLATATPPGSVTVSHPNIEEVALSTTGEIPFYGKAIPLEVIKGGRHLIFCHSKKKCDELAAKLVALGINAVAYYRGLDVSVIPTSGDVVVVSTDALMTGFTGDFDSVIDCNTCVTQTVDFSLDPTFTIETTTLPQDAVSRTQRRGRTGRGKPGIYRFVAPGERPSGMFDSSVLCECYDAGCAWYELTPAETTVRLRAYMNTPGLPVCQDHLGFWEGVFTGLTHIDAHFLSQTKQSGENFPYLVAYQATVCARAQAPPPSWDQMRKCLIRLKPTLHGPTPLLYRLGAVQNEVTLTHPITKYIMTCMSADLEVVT

| Structure (SMILES) | ring closure, yield of all isomers [1] [%] | EC50 [2] [nM] | IC50 [3] [nM] |
| --- | --- | --- | --- |
| CCOC(=O)[C@@]12C[C@H]1C=CCCCCC[C@H](NC(=O)OC(C)(C)C)C(=O)N1CCC[C@H]1C(=O)N2 | 76 |  |  |
| CC(C)(C)OC(=O)N[C@H]1CCCCC/C=C\[C@@H]2C[C@@]2(C(=O)Nc2ccccc2)NC(=O)[C@@H]2C[C@@H](OC(=O)N3Cc4ccccc4C3)CN2C1=O [Compound 601] |  | < 1000 | < 100 |
| Cc1ccc(CN[C@H]2CCCCC/C=C\[C@@H]3C[C@@]3(C(=O)NC#N)NC(=O)C3C[C@@H](OC(=O)N4Cc5cccc(F)c5C4)CN3C2=O)o1 (some centres unmarked) [Compound 643] |  | > 10000 | < 1000 |
